Holding throughout (assay type): functional, cell-based
Test [1] can be described thus: Antiproliferative activity against mouse MB49 cells assessed as reduction in cell viability after 24 hrs by MTT assay. The settings on record: MB49, 24 h. Background: Tetrazolium dyes change colour on reduction, which living cells bring about.
The test system of a further test is J82. The test is described as follows: Antiproliferative activity against human J82 cells assessed as reduction in cell viability after 24 hrs by MTT assay. The settings on record: J82, 24 h.
Another test relates to 4T1. The test is described as follows: Antiproliferative activity against mouse 4T1 cells assessed as reduction in cell viability after 24 hrs by MTT assay. The settings on record: 4T1, 24 h.
In a further test the test system is Huh-7. The test is described as follows: Antiproliferative activity against human Huh-7 cells assessed as reduction in cell viability after 24 hrs by MTT assay. The settings on record: Huh-7, 24 h.

`CC1=CC(=O)[C@]2(O)C(=O)c3c(ccc(-c4ccc5c(c4O)C(=O)[C@@]46C[C@@]7(C(=O)CC[C@@H]7C)[C@@](C)(CC4=O)C(=O)[C@]6(C)O5)c3O)O[C@@]2(C)[C@H]1O`: the IC50 in test [1] came to 41.7 µM; in the test on J82, 24.7 µM; with 4T1 it was 27.5 µM; in the test with Huh-7, 46.4 µM.
For `C[C@H]1CCC(=O)[C@@]12C[C@]13C(=O)C[C@@]2(C)C(=O)[C@]1(C)Oc1cccc(O)c1C3=O` the same measures were 13.9 µM, 25 µM, 38.7 µM and 24.3 µM.

The IC50 is the concentration needed to halve the response being measured.

These data come from ChEMBL document CHEMBL5126666, “Cladoxanthones A and B, Xanthone-Derived Metabolites with a Spiro[cyclopentane-1,2'-[3,9a]ethanoxanthene]-2,4',9',11'-tetraone Skeleton from a Cladosporium sp” (J Nat Prod, 2022).
